Experimental findings from PubChem BioAssay (NCI) are described below.

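Protocol summary: plate cells (96-well), add compound at 5 concentrations, incubate 48 h, interpolate endpoints linearly. GI50 is the concentration that inhibits growth by half. The concentration for full growth arrest is given as TGI.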

Holding throughout (experiment): NCI tumour cell line growth inhibition, 48 h
Assay [1] deals with A498 renal.
Assay [2] concerns A549 NSCLC.
Assay [3] concerns CAKI-1 renal.
The test system of assay [4] is HOP-92 NSCLC.
Assay [5] relates to NCI-H23 lung.
In assay [6] the test system is OVCAR-5 ovarian.
The subject of assay [7] is SK-MEL-5 melanoma.
Assay [8] concerns SN12C renal.
Assay [9] has as its system TK-10 renal.
Assay [10] concerns UACC-62 melanoma.

On to `COc1cc2nc(-c3ccc(C(F)(F)F)cc3)cc(OCCCN3CCCCC3)c2cc1OC`, for which the GI50 is 1.85 µM in assay [1]; 0.722 µM in [2]; 0.272 µM in assay [3]; 0.678 µM in assay [4]; 1.91 µM in assay [5]; 0.71 µM in assay [6]. Further, the GI50 in assay [7] is 0.325 µM; in assay [8] it was 0.668 µM; in assay [9], 7.81 µM; in [10], 1.82 µM. Further, the TGI in assay [1] came to 5.16 µM; in [2], 19.4 µM; in [3], 5.05 µM; in [4] it was 7.08 µM; in assay [5] it was 11.1 µM; in assay [6] it was 16.5 µM. The TGI in assay [7] was 1.2 µM; in assay [8], 15.8 µM; in assay [9] it was 24.5 µM; in assay [10], 6.29 µM.

With `O=C(OC[C@H]1O[C@@H](OC(=O)c2cc(O)c(O)c(O)c2)[C@H](OC(=O)c2cc(O)c(O)c(O)c2)[C@@H](OC(=O)c2cc(O)c(O)c(O)c2)[C@@H]1OC(=O)c1cc(O)c(O)c(O)c1)c1cc(O)c(O)c(O)c1`, the TGI in [1] was 37.5 µM; in assay [2], 19.8 µM; in assay [3], 85.6 µM; in assay [4] it was 37.4 µM; in assay [5], 7.71 µM; in assay [6] it was 52.5 µM. Further, the TGI in [7] was 24.2 µM; in [8], above 100 µM; in assay [9], 66 µM; in [10] it was 6.44 µM.

For `CN(C)C(=O)O[C@@H]1CN[C@@H](C#Cc2cc3ncnc(Nc4ccc(OCc5cccc(F)c5)c(Cl)c4)c3s2)C1`, the GI50 is 5.65 µM in assay [1]; 7.82 µM in [2]; 5.87 µM in [3]; 6.5 µM in [4]; above 25 µM in [5]; above 25 µM in assay [6]. Moreover, the GI50 was above 25 µM in assay [7], 8.01 µM in assay [8], 4.7 µM in assay [9] and above 25 µM in [10]. The TGI in [1] is above 19.7 µM; in assay [2] it was above 25 µM; in [3] it was above 25 µM; in [4], above 25 µM; in [5], above 25 µM; in [6], above 25 µM. In addition, the TGI in assay [7], in assay [8], in assay [9] and in assay [10] was above 25 µM throughout.

As for `Cc1nc(C(N)=S)sc1C(=O)C/C(=N/N)C(=O)Nc1cccc(Cl)c1C`, the TGI in [1], in [2], in [3], in assay [4], in assay [5] and in assay [6] was above 100 µM throughout. For the same molecule, the TGI in assay [7], in assay [8], in assay [9] and in assay [10] was above 100 µM each time.

`CCN(CCNc1ccc(C)c2sc3ccccc3c(=O)c12)CC(C)(C)O`: the GI50 in [1] is 7.46 µM; in assay [2], 6.84 µM; in assay [3], 5.35 µM; in assay [4], 5.47 µM; in assay [5], 15.4 µM; in assay [6], 16.8 µM. In addition, the GI50 in assay [7] is 2.31 µM; in assay [8], 13.2 µM; in assay [9], 14.3 µM; in assay [10], 2.9 µM. For the same molecule, the TGI in [1] is 21.5 µM; in [2] it was 25.5 µM; in [3], 22.4 µM; in [4], 20.5 µM; in assay [5], 41.8 µM; in [6] it was 36.5 µM. For the same molecule, the TGI in assay [7] came to 6.17 µM; in assay [8] it was 28.3 µM; in [9] it was 33.7 µM; in [10] it was 9.48 µM.

Take `COc1ccc(CN2c3ccccc3CCc3ccccc32)cc1F`: the GI50 in [1] is 0.339 µM; in assay [2], 0.732 µM; in [3], 0.549 µM; in assay [4] it was 0.587 µM; in assay [5] it was 0.672 µM; in assay [6] it was 1.9 µM. Moreover, the GI50 is 0.522 µM in assay [7], 1.95 µM in [8], 0.611 µM in [9] and 0.804 µM in assay [10]. Besides, the TGI was above 100 µM in assay [1]; above 100 µM in assay [2]; above 100 µM in assay [3]; 48 µM in assay [4]; above 100 µM in [5]; above 100 µM in assay [6]. The TGI in [7] was 14.2 µM; in assay [8], above 100 µM; in assay [9] it was above 100 µM; in assay [10] it was above 100 µM.
